Source: article PMC5218480 (PLoS ONE, 2017)

Test system: MV-4-11 cells
Experiment: Gene expression microarray analysis (Affymetrix PrimeView) and GSEA
Type: cell-based, human
Set-up: RFU PODN (11730768_x_at) / Fold change /veh PODN (11730768_x_at) / RFU LINC00158 (11744669_a_at) / Fold change /veh LINC00158 (11744669_a_at) / RFU DUSP10 (11751237_a_at) / Fold change /veh DUSP10 (11751237_a_at) / RFU ID3 (11757404_x_at) / Fold change /veh ID3 (11757404_x_at) / RFU PLEKHG5 (11737974_s_at) / Fold change /veh PLEKHG5 (11737974_s_at) / RFU LRRC4B (11730491_at) / Fold change /veh LRRC4B (11730491_at) / RFU GIMAP4 (11747438_a_at) / Fold change /veh GIMAP4 (11747438_a_at) / RFU KRT8 (11758183_x_at) / Fold change /veh KRT8 (11758183_x_at) / RFU CNN1 (11734310_a_at) / Fold change /veh CNN1 (11734310_a_at) / RFU VPS37D (11726825_at) / Fold change /veh VPS37D (11726825_at) / RFU C10orf10 (11716522_x_at) / Fold change /veh C10orf10 (11716522_x_at) / RFU KIR2DL2 /// KIR2DL4 /// KIR2DL5A /// KIR2DL5B /// KIR2DS1 /// KIR2DS2 /// KIR2DS3 /// KIR2DS4 /// KIR3DL3 /// KIR3DL3 /// KIR3DS1 (11738374_at) / Fold change /veh KIR2DL2 /// KIR2DL4 /// KIR2DL5A /// KIR2DL5B /// KIR2DS1 /// KIR2DS2 /// KIR2DS3 /// KIR2DS4 /// KIR3DL3 /// KIR3DL3 /// KIR3DS1 (11738374_at) / RFU C1QL1 (11718748_at) / Fold change /veh C1QL1 (11718748_at) / RFU TMPRSS4 (11747572_a_at) / Fold change /veh TMPRSS4 (11747572_a_at) / RFU HAMP (11756126_x_at) / Fold change /veh HAMP (11756126_x_at) / RFU RNFT2 (11725882_a_at) / Fold change /veh RNFT2 (11725882_a_at) / RFU NR4A2 (11747474_a_at) / Fold change /veh NR4A2 (11747474_a_at) / RFU ABCC12 (11746883_a_at) / Fold change /veh ABCC12 (11746883_a_at) / RFU TMEM136 (11760407_x_at) / Fold change /veh TMEM136 (11760407_x_at) / RFU CLDN22 /// WWC2 (11732394_at) / Fold change /veh CLDN22 /// WWC2 (11732394_at) / RFU HLA-DPB1 (11760878_x_at) / Fold change /veh HLA-DPB1 (11760878_x_at) / RFU SPINT1 (11716480_a_at) / Fold change /veh SPINT1 (11716480_a_at) / RFU GAP43 (11754022_s_at) / Fold change /veh GAP43 (11754022_s_at) / RFU A4GNT (11735810_at) / Fold change /veh A4GNT (11735810_at) / RFU PRB3 (11715151_x_at) / Fold change /veh PRB3 (11715151_x_at) / RFU TUBB4B (11761932_at) / Fold change /veh TUBB4B (11761932_at) / RFU CAPN14 (11732068_a_at) / Fold change /veh CAPN14 (11732068_a_at) / RFU TMCC2 (11721928_a_at) / Fold change /veh TMCC2 (11721928_a_at) / RFU IRGQ (11745062_a_at) / Fold change /veh IRGQ (11745062_a_at) / RFU FAM174B (11720279_a_at) / Fold change /veh FAM174B (11720279_a_at) / RFU TMPRSS4 (11748680_a_at) / Fold change /veh TMPRSS4 (11748680_a_at) / RFU FAM212B (11763350_a_at) / Fold change /veh FAM212B (11763350_a_at) / RFU PLEKHG5 (11743358_a_at) / Fold change /veh PLEKHG5 (11743358_a_at) / RFU ZSCAN30 (11745921_a_at) / Fold change /veh ZSCAN30 (11745921_a_at) / RFU CMKLR1 (11741424_a_at) / Fold change /veh CMKLR1 (11741424_a_at) / RFU LOC101060620 /// MAPK8IP1 (11723275_at) / Fold change /veh LOC101060620 /// MAPK8IP1 (11723275_at) / RFU SPTSSB (11747773_x_at) / Fold change /veh SPTSSB (11747773_x_at) / RFU PRSS12 (11739890_at) / Fold change /veh PRSS12 (11739890_at) / RFU BIN1 (11741810_x_at) / Fold change /veh BIN1 (11741810_x_at) / RFU WNT11 (11732464_a_at) / Fold change /veh WNT11 (11732464_a_at) / RFU C10orf10 (11716521_a_at) / Fold change /veh C10orf10 (11716521_a_at) / RFU C5orf56 (11738089_at) / Fold change /veh C5orf56 (11738089_at) / RFU CYB561 (11721691_x_at) / Fold change /veh CYB561 (11721691_x_at) / RFU ANKRD19P (11752326_a_at) / Fold change /veh ANKRD19P (11752326_a_at) / RFU OR2T12 /// OR2T33 /// OR2T8 (11738714_s_at) / Fold change /veh OR2T12 /// OR2T33 /// OR2T8 (11738714_s_at) / RFU VCAN (11748164_a_at) / Fold change /veh VCAN (11748164_a_at) / RFU JSRP1 (11732532_at) / Fold change /veh JSRP1 (11732532_at) / RFU KRTAP10-11 (11738290_x_at) / Fold change /veh KRTAP10-11 (11738290_x_at) / RFU MYO3A (11730013_a_at) / Fold change /veh MYO3A (11730013_a_at) / RFU EBF3 (11725865_a_at) / Fold change /veh EBF3 (11725865_a_at) / RFU CAMK2N1 (11719241_x_at) / Fold change /veh CAMK2N1 (11719241_x_at) / RFU C5orf56 (11738088_a_at) / Fold change /veh C5orf56 (11738088_a_at) / RFU OLFML3 (11715873_a_at) / Fold change /veh OLFML3 (11715873_a_at) / RFU LOC100653217 /// NTM (11731650_a_at) / Fold change /veh LOC100653217 /// NTM (11731650_a_at) / RFU MAPK11 (11762145_a_at) / Fold change /veh MAPK11 (11762145_a_at) / RFU FIZ1 (11724087_x_at) / Fold change /veh FIZ1 (11724087_x_at) / RFU OASL (11726364_x_at) / Fold change /veh OASL (11726364_x_at) / RFU SOX15 (11748057_x_at) / Fold change /veh SOX15 (11748057_x_at) / RFU CD79A (11719716_a_at) / Fold change /veh CD79A (11719716_a_at) / RFU HIST1H1D (11736915_at) / Fold change /veh HIST1H1D (11736915_at) / RFU CASKIN2 (11723855_a_at) / Fold change /veh CASKIN2 (11723855_a_at) / RFU LOC730098 (11760151_x_at) / Fold change /veh LOC730098 (11760151_x_at) / RFU OR4N2 (11742367_at) / Fold change /veh OR4N2 (11742367_at) / RFU PRRT2 (11749266_a_at) / Fold change /veh PRRT2 (11749266_a_at) / RFU SNX32 (11753110_a_at) / Fold change /veh SNX32 (11753110_a_at) / RFU CDHR5 (11726645_a_at) / Fold change /veh CDHR5 (11726645_a_at) / RFU RCAN1 (11760418_a_at) / Fold change /veh RCAN1 (11760418_a_at) / RFU FAM167A (11723789_a_at) / Fold change /veh FAM167A (11723789_a_at) / RFU FAM26E (11764081_at) / Fold change /veh FAM26E (11764081_at) / RFU ISYNA1 (11749810_s_at) / Fold change /veh ISYNA1 (11749810_s_at) / RFU ACY1 (11761880_at) / Fold change /veh ACY1 (11761880_at) / RFU 11764098_at / Fold change /veh 11764098_at / RFU SAMD14 (11745864_x_at) / Fold change /veh SAMD14 (11745864_x_at) / RFU NPB (11741838_a_at) / Fold change /veh NPB (11741838_a_at) / RFU TMPRSS6 (11731388_a_at) / Fold change /veh TMPRSS6 (11731388_a_at) / RFU KRTAP10-2 (11738614_at) / Fold change /veh KRTAP10-2 (11738614_at) / RFU ARHGAP8 /// PRR5-ARHGAP8 (11727945_x_at) / Fold change /veh ARHGAP8 /// PRR5-ARHGAP8 (11727945_x_at) / RFU KRTAP5-7 /// NADSYN1 (11734609_at) / Fold change /veh KRTAP5-7 /// NADSYN1 (11734609_at) / RFU RASL12 (11751679_a_at) / Fold change /veh RASL12 (11751679_a_at) / RFU CDKN2B (11736163_a_at) / Fold change /veh CDKN2B (11736163_a_at) / RFU PRF1 (11729649_at) / Fold change /veh PRF1 (11729649_at) / RFU, ZNF638 /// ZNF638-IT1 / Fold change vs veh, ZNF638 /// ZNF638-IT1 / RFU, PANK3 / Fold change vs veh, PANK3 / RFU, SH3YL1 / Fold change vs veh, SH3YL1 / RFU, ZEB2 / Fold change vs veh, ZEB2 / RFU, NRIP1 / Fold change vs veh, NRIP1 / RFU, PTTG1IP / Fold change vs veh, PTTG1IP / RFU, CAPN2 / Fold change vs veh, CAPN2 / RFU, MED14 / Fold change vs veh, MED14 / RFU, SNORA58 / Fold change vs veh, SNORA58 / RFU, C1orf63 / Fold change vs veh, C1orf63 / RFU, LRRFIP1 / Fold change vs veh, LRRFIP1 / RFU, NDUFAF7 / Fold change vs veh, NDUFAF7 / RFU, SLC12A2 / Fold change vs veh, SLC12A2 / RFU, IBTK / Fold change vs veh, IBTK / RFU, ESF1 / Fold change vs veh, ESF1 / Fold change vs veh, TMEM50B / RFU, TAOK1 / Fold change vs veh, TAOK1 / RFU, ACBD3 / Fold change vs veh, ACBD3 / RFU, TMA16 / Fold change vs veh, TMA16 / RFU, RWDD3 / Fold change vs veh, RWDD3 / RFU, BCAT1 / Fold change vs veh, BCAT1 / RFU, EDEM3 / Fold change vs veh, EDEM3 / RFU, TMEM33 / Fold change vs veh, TMEM33 / RFU, WDR75 / Fold change vs veh, WDR75 / RFU, AHCTF1 / Fold change vs veh, AHCTF1 / RFU, TFRC / Fold change vs veh, TFRC / RFU, ZDHHC17 / Fold change vs veh, ZDHHC17 / RFU, NOM1 / Fold change vs veh, NOM1 / RFU, ARL8B / Fold change vs veh, ARL8B / RFU, ZBTB11 / Fold change vs veh, ZBTB11 / RFU, TAMM41 / Fold change vs veh, TAMM41 / RFU, KIAA1704 /// LOC100996395 / Fold change vs veh, KIAA1704 /// LOC100996395 / RFU, ING1 / Fold change vs veh, ING1 / RFU, TRMT61B / Fold change vs veh, TRMT61B / RFU, FUBP3 / Fold change vs veh, FUBP3 / RFU, TP53 / Fold change vs veh, TP53 / RFU, TNKS2 / Fold change vs veh, TNKS2 / RFU, ZFP14 / Fold change vs veh, ZFP14 / RFU, ACTR2 / Fold change vs veh, ACTR2 / RFU, PPP3R1 / Fold change vs veh, PPP3R1 / RFU, PIK3R1 / Fold change vs veh, PIK3R1 / RFU, HNRNPA1 / Fold change vs veh, HNRNPA1 / RFU, RNF170 / Fold change vs veh, RNF170 / RFU, ZNF28 / Fold change vs veh, ZNF28 / RFU, RNGTT / Fold change vs veh, RNGTT / RFU, OGT / Fold change vs veh, OGT / RFU, BRD1 / Fold change vs veh, BRD1 / RFU, MARS / Fold change vs veh, MARS / RFU, ZNF655 / Fold change vs veh, ZNF655 / RFU, FAHD1 / Fold change vs veh, FAHD1 / RFU, BDP1 / Fold change vs veh, BDP1 / RFU, LRRCC1 / Fold change vs veh, LRRCC1 / RFU, ARID1A / Fold change vs veh, ARID1A / RFU, ZNF146 / Fold change vs veh, ZNF146 / RFU, ZNF330 / Fold change vs veh, ZNF330 / RFU, GPN3 / Fold change vs veh, GPN3 / RFU, C9orf123 / Fold change vs veh, C9orf123 / RFU, N4BP2L2 / Fold change vs veh, N4BP2L2 / RFU, ARFIP1 / Fold change vs veh, ARFIP1 / RFU, FAM179B / Fold change vs veh, FAM179B / RFU, BCL10 / Fold change vs veh, BCL10 / RFU, UHRF1BP1L / Fold change vs veh, UHRF1BP1L / RFU, BET1 / Fold change vs veh, BET1 / RFU, CNOT2 / Fold change vs veh, CNOT2 / RFU, ZNF268 / Fold change vs veh, ZNF268 / Fold change vs veh, ZNF507 / RFU, DGCR2 / Fold change vs veh, DGCR2 / RFU, WDSUB1 / Fold change vs veh, WDSUB1 / Fold change vs veh, HSP90B1 /// MIR3652 / RFU, ADSS / Fold change vs veh, ADSS / RFU, GK / Fold change vs veh, GK / RFU, ZNF148 / Fold change vs veh, ZNF148 / RFU, TAF9 / Fold change vs veh, TAF9 / RFU, SLC1A5 / Fold change vs veh, SLC1A5 / RFU, SLMO2 / Fold change vs veh, SLMO2 / RFU, ABCC4 / Fold change vs veh, ABCC4 / RFU, LOC101060439 /// RAP1B / Fold change vs veh, LOC101060439 /// RAP1B / RFU, RFX7 / Fold change vs veh, RFX7 / RFU, GTPBP10 / Fold change vs veh, GTPBP10 / RFU, CNEP1R1 / Fold change vs veh, CNEP1R1 / RFU, BIVM-ERCC5 /// ERCC5 / Fold change vs veh, BIVM-ERCC5 /// ERCC5 / RFU, ILF3 / Fold change vs veh, ILF3 / RFU 11762660_at / Fold change /veh 11762660_at / RFU VCAN (11757783_s_at) / Fold change /veh VCAN (11757783_s_at) / RFU DDX43 (11728927_at) / Fold change /veh DDX43 (11728927_at) / RFU KRT8 (11758188_x_at) / Fold change /veh KRT8 (11758188_x_at) / RFU NKD1 (11759106_at) / Fold change /veh NKD1 (11759106_at) / RFU SRD5A1 (11742802_a_at) / Fold change /veh SRD5A1 (11742802_a_at) / RFU TPSAB1 /// TPSB2 (11721975_s_at) / Fold change /veh TPSAB1 /// TPSB2 (11721975_s_at) / RFU GSTM3 (11746129_a_at) / Fold change /veh GSTM3 (11746129_a_at) / RFU IL23R (11737362_x_at) / Fold change /veh IL23R (11737362_x_at) / RFU TMEM51 (11727254_a_at) / Fold change /veh TMEM51 (11727254_a_at) / RFU PIWIL2 (11732686_x_at) / Fold change /veh PIWIL2 (11732686_x_at) / RFU ORM1 (11744905_x_at) / Fold change /veh ORM1 (11744905_x_at) / RFU CCDC152 (11743942_at) / Fold change /veh CCDC152 (11743942_at) / RFU ECM1 (11717891_a_at) / Fold change /veh ECM1 (11717891_a_at) / RFU IL23R (11748794_a_at) / Fold change /veh IL23R (11748794_a_at) / RFU TNFAIP8L3 (11732012_x_at) / Fold change /veh TNFAIP8L3 (11732012_x_at) / RFU MBOAT4 (11741988_at) / Fold change /veh MBOAT4 (11741988_at) / RFU 11764193_at / Fold change /veh 11764193_at / RFU TMEM53 (11763286_at) / Fold change /veh TMEM53 (11763286_at) / RFU MAGEB2 (11727129_at) / Fold change /veh MAGEB2 (11727129_at) / RFU TMEM200A (11744735_a_at) / Fold change /veh TMEM200A (11744735_a_at) / RFU CCDC152 (11751479_a_at) / Fold change /veh CCDC152 (11751479_a_at) / RFU FAM211A (11726209_a_at) / Fold change /veh FAM211A (11726209_a_at) / RFU RGS16 (11746705_a_at) / Fold change /veh RGS16 (11746705_a_at) / RFU VCAN (11755009_s_at) / Fold change /veh VCAN (11755009_s_at) / RFU RHOB (11743442_s_at) / Fold change /veh RHOB (11743442_s_at) / RFU RGS16 (11720943_a_at) / Fold change /veh RGS16 (11720943_a_at) / RFU RGS16 (11720944_at) / Fold change /veh RGS16 (11720944_at) / RFU, VPS4B / Fold change vs veh, VPS4B / RFU, CREB1 / Fold change vs veh, CREB1 / RFU, DNAJC13 / Fold change vs veh, DNAJC13 / RFU, GNAQ / Fold change vs veh, GNAQ / RFU, CDK5R1 / Fold change vs veh, CDK5R1 / RFU, ZRANB3 / Fold change vs veh, ZRANB3 / RFU, CUL4A / Fold change vs veh, CUL4A / RFU, CCNY / Fold change vs veh, CCNY / RFU, UFL1 / Fold change vs veh, UFL1 / RFU, COG3 / Fold change vs veh, COG3 / RFU, DIAPH2 / Fold change vs veh, DIAPH2 / RFU, SKA2 / Fold change vs veh, SKA2 / RFU, AFF3 / Fold change vs veh, AFF3 / RFU, LMF1 / Fold change vs veh, LMF1 / RFU, IPO11 / Fold change vs veh, IPO11 / RFU, DFFB / Fold change vs veh, DFFB / RFU, FOXP1 / Fold change vs veh, FOXP1 / RFU, CARD8 / Fold change vs veh, CARD8 / RFU, STRN3 / Fold change vs veh, STRN3 / RFU, ADK / Fold change vs veh, ADK / RFU, RASSF2 / Fold change vs veh, RASSF2 / RFU, WIPF1 / Fold change vs veh, WIPF1 / RFU, LARP1B / Fold change vs veh, LARP1B / RFU, RASA1 / Fold change vs veh, RASA1 / RFU, RB1 / Fold change vs veh, RB1 / RFU, PPFIA1 / Fold change vs veh, PPFIA1 / RFU, MAT2A / Fold change vs veh, MAT2A / RFU, CCT5 / Fold change vs veh, CCT5 / RFU, WDR92 / Fold change vs veh, WDR92 / RFU, CUX1 / Fold change vs veh, CUX1 / RFU, TTC7A / Fold change vs veh, TTC7A / RFU, TMEM135 / Fold change vs veh, TMEM135 / RFU, DEPTOR / Fold change vs veh, DEPTOR / RFU, CPM / Fold change vs veh, CPM / RFU, DNAJB6 / Fold change vs veh, DNAJB6 / RFU, CACNA2D3 / Fold change vs veh, CACNA2D3 / RFU, DTX4 / Fold change vs veh, DTX4 / RFU, TFCP2 / Fold change vs veh, TFCP2 / RFU, GMCL1 /// GMCL1P1 / Fold change vs veh, GMCL1 /// GMCL1P1 / RFU, AEBP2 / Fold change vs veh, AEBP2 / RFU, SNHG1 /// SNORD22 /// SNORD25 /// SNORD26 /// SNORD27 /// SNORD28 /// SNORD29 /// SNORD31 / Fold change vs veh, SNHG1 /// SNORD22 /// SNORD25 /// SNORD26 /// SNORD27 /// SNORD28 /// SNORD29 /// SNORD31 / Fold change (Aza/veh), C12orf56 (ProbeSet 11735607_a_at) / Fold change (ACY-1035/veh), C12orf56 (ProbeSet 11735607_a_at) / Fold change (Aza/veh), FGFR1OP (ProbeSet 11751329_s_at) / Fold change (ACY-1035/veh), FGFR1OP (ProbeSet 11751329_s_at) / Fold change (Aza/veh), VPS36 (ProbeSet 11739960_a_at) / Fold change (ACY-1035/veh), VPS36 (ProbeSet 11739960_a_at) / RFU SYPL1 (11715823_x_at) / Fold change /veh SYPL1 (11715823_x_at) / RFU IGFBP7 (11715501_s_at) / Fold change /veh IGFBP7 (11715501_s_at) / RFU REEP3 (11722064_at) / Fold change /veh REEP3 (11722064_at) / RFU IGLL1 (11728026_x_at) / Fold change /veh IGLL1 (11728026_x_at): dose or concentration left out as unconfirmed
Settings: MV-4-11 cells, 48 hours

Nc1ncn([C@@H]2O[C@H](CO)[C@@H](O)[C@H]2O)c(=O)n1 [azacitidine] was tested, and the “Fold change /veh ID3 (11757404_x_at)” value was 1.09.
